{
  "source": "patent US20070196902A1",
  "about": "“Method of detecting AZT resistance in HIV” (University of Pittsburgh, priority 2006, published 2007)",
  "key": {"[1]": {"test_system": "wild-type HIV-1LAI passaged in MT-2 cells in increasing concentrations of AZT", "assay": "AZT susceptibility of virus passaged in increasing AZT, selection starting with wild-type HIV-1LAI; single-cycle assay in P4/R5 cells", "assay_type": "cell-based", "conditions": "for Fold-Resistance: compared to wild-type passaged without AZT", "procedure": "Selection of AZT-resistant viruses. Resistant virus was selected in two independent experiments by the passage of wild-type HIVLAI or HIVLAI containing the M41L/L210W/T215Y mutations (AZT^R HIVLAI) in MT-2 cells in increasing concentrations of AZT. To initiate each selection experiment, MT-2 cells (1×10^6) were pretreated for two hours with 0.5 μM and 25 μM AZT for wild-type HIVLAI and AZT^R HIVLAI, respectively, before virus was added. Viral replication was monitored by CPE. At +3/4 CPE (3 or 4 syncytia per field at 100× magnified field), cell-free supernatant was harvested and 0.1 ml of supernatant was added to fresh MT-2 cells to initiate a new passage. The concentration of AZT was doubled every three passages. The selection pressure was increased from an initial AZT concentration of 0.5 μM to a final concentration of 32 μM for wild-type HIVLAI, and from 25 μM to 150 μM for the AZT^R HIVLAI. The concentration of drug required to inhibit viral replication by 50% (IC50) was calculated every five passages to identify changes in AZT susceptibility, and fold-resistance was determined by dividing the IC50 of the mutant virus by the IC50 of wild-type HIV-1LAI. The genotype of the passaged virus was determined as described above.\n(§1) Drug susceptibility assays. NRTI susceptibility was determined in P4/R5 cells as described previously (Parikh, U. M., et al. 2005. Antimicrob. Agents Chemother. 49:1139-44). Briefly, threefold dilutions of inhibitor were added to P4/R5 cells in triplicate and cells were infected with an amount of virus that produced 100 relative units of light (RLU) in no drug, virus control wells. After 48 hours, the cells were lysed (Gal-Screen; Tropix/Applied Biosystems, Foster City, Calif.) and the RLU was measured using a ThermoLabSystems luminometer (Waltham, Mass.). The IC50 and fold-resistance were calculated as described above. IC50 values from at least three independent experiments were log10 transformed and compared for statistically significant differences using the two-sample Student's t test.\nSelection of AZT-resistant virus. Two independent AZT selection experiments were conducted. One starting with wild-type HIV-1LAI and the second starting with AZT HIV-1LAI (encoding M41L/L210W/T215Y). Both viruses were serially passaged in MT-2 cells in increasing concentrations of AZT. After every 5 passages, AZT susceptibility was measured in a single-cycle viral replication assay in P4/R5 cells (described in Materials and Methods). Viral RNA was extracted, converted to cDNA and the entire coding region of RT (residues 1-560) was PCR amplified and sequenced to monitor the appearance of mutations. In the selection experiment starting with HIV-1LAI, AZT susceptibility was reduced 66-fold by passage 35 and two polymerase domain TAMs were identified: D67N and K70R (Table 1)."}, "[2]": {"test_system": "HIV-1 RT mutants with A371V and/or Q509L, alone or in combination with TAMs", "assay": "Drug susceptibility of site-directed mutants, comparisons between mutants with and without A371V/Q509L", "assay_type": "cell-based"}, "HIVLAI RT 67N/70R/371V": {"test_system": "HIVLAI RT 67N/70R/371V", "assay": "Drug susceptibility assay in P4/R5 cells, site-directed mutant", "assay_type": "cell-based, HIV-1", "procedure": "as §1\n(§2) Construction of mutant recombinant HIV-1. Mutant recombinant plasmid clones of virus were generated by oligonucleotide site-directed mutagenesis as described previously (Shi, C., and J. W. Mellors. 1997. A recombinant retroviral system for rapid […] analysis of human immunodeficiency virus type 1 susceptibility to reverse transcriptase inhibitors. Antimicrob. Agents Chemother. 41:2781-5), using the p6HRT-MO plasmid. p6HRT-MO contains the entire RT and protease coding sequence as previously described (Le Grice, S. F., and F. Gruninger-Leitch. 1990. Rapid purification of homodimer and heterodimer HIV-1 reverse transcriptase by metal chelate affinity chromatography. Eur. J. Biochem. 187:307-14) and four silent restriction sites (Xma I, Mlu I, Xba I, and NgoM IV from the 5′ to 3′ end of RT at codons 14, 358, 490 and 554, respectively). After site-directed mutagenesis (QIAamp kit, QIAGEN, Valencia, Calif.), the mutated RT was ligated into pxxHIV-1LAI MO that contains the entire genome of HIV-1LAI and the same silent restriction sites as p6HRT-MO. Infectious virus was generated by electroporating the mutated xxHIV-1LAI MO plasmid into MT-2 cells as described above. All mutations in recombinant viruses were confirmed by full-length sequencing of the entire RT coding region."}, "HIVLAI RT Q509L": {"test_system": "HIVLAI RT Q509L", "assay": "Drug susceptibility assay in P4/R5 cells, site-directed mutant", "assay_type": "cell-based, HIV-1", "procedure": "as §1, §2"}, "HIVLAI RT D67N/K70R": {"test_system": "HIVLAI RT D67N/K70R", "assay": "Drug susceptibility assay in P4/R5 cells, site-directed mutant", "assay_type": "cell-based, HIV-1", "procedure": "as §1, §2"}, "HIVLAI RT 67N/70R/509L": {"test_system": "HIVLAI RT 67N/70R/509L", "assay": "Drug susceptibility assay in P4/R5 cells, site-directed mutant", "assay_type": "cell-based, HIV-1", "procedure": "as §1, §2"}, "[3]": {"test_system": "HIVLAI RT 67N/70R/215I/509L", "assay": "Drug susceptibility assay in P4/R5 cells, site-directed mutant", "assay_type": "cell-based, HIV-1", "procedure": "as §1, §2"}, "Wild-type HIVLAI": {"test_system": "Wild-type HIVLAI", "assay": "Drug susceptibility assay in P4/R5 cells, recombinant virus", "assay_type": "cell-based, HIV-1", "conditions": "Human immunodeficiency virus 1, P4/R5; Wild-type; mean ± SD, at least three experiments; read-out: IC50", "procedure": "as §1, §2"}, "[4]": {"test_system": "HIV-1 RT G335C with \"classic\" TAMs", "conditions": "G335C present with \"classic\" TAMs; cited from earlier work"}, "[5]": {"test_system": "HIV-1 RT D549N with TAMs D67N, K70R, T215Y and K219Q", "conditions": "D549N present with TAMs D67N; cited from earlier work"}},
  "note": "Where two headings read alike, the source gives them in different places.",
  "data": [
    {"smiles": "Cc1cn([C@H]2C[C@H](N=[N+]=[N-])[C@@H](CO)O2)c(=O)[nH]c1=O", "note": "[AZT, 3′-azido-3′-dideoxythymidine]", "values": [
      {"measurement": "IC50", "setting": "[1]; Human immunodeficiency virus 1, MT2, passage 1, AZT concentration 0.5 μM, read-out: IC50", "value": 200, "unit": "nM"},
      {"measurement": "IC50", "setting": "[1]; Human immunodeficiency virus 1, MT2, passage 10, AZT concentration 0.5 μM, read-out: IC50", "value": 300, "unit": "nM"},
      {"measurement": "IC50", "setting": "[1]; Human immunodeficiency virus 1, MT2, passage 20, AZT concentration 0.5 μM, read-out: IC50", "value": 700, "unit": "nM"},
      {"measurement": "IC50", "setting": "[1]; Human immunodeficiency virus 1, MT2, passage 25, AZT concentration 1.0 μM, mutations: None, read-out: IC50", "value": 700, "unit": "nM"},
      {"measurement": "IC50", "setting": "[1]; Human immunodeficiency virus 1, MT2, passage 30, AZT concentration 2.0 μM, D67D/N, K70K/R, read-out: IC50", "value": 3000, "unit": "nM"},
      {"measurement": "IC50", "setting": "[1]; Human immunodeficiency virus 1, MT2, passage 35, AZT concentration 2.0 μM, D67N, K70R, read-out: IC50", "value": 10000, "unit": "nM"},
      {"measurement": "IC50", "setting": "[1]; Human immunodeficiency virus 1, MT2, passage 40, AZT concentration 4.0 μM, D67N, K70R, A371A/V, Q509Q/L, read-out: IC50", "value": 10000, "unit": "nM"},
      {"measurement": "IC50", "setting": "[1]; Human immunodeficiency virus 1, MT2, passage 55, AZT concentration 16 μM, D67N, K70R, T215T/I, A371A/V, Q509Q/L, read-out: IC50", "value": 39000, "unit": "nM"},
      {"measurement": "IC50", "setting": "[1]; Human immunodeficiency virus 1, MT2, passage 60, AZT concentration 32 μM, D67N, K70R, T215I, A371A/V, Q509L, read-out: IC50", "value": 56000, "unit": "nM"},
      {"measurement": "IC50", "setting": "[1]; Human immunodeficiency virus 1, MT2, passage 65, AZT concentration 32 μM, D67N, K70R, T215I/F, A371A/V, Q509L", "value": "≥ 810000", "unit": "nM"},
      {"measurement": "Fold-Resistance", "setting": "[1]; passage 25, mutations: None", "value": 4.1, "unit": "fold"},
      {"measurement": "Fold-Resistance", "setting": "[1]; passage 30, D67D/N, K70K/R", "value": 26, "unit": "fold"},
      {"measurement": "Fold-Resistance", "setting": "[1]; passage 35, D67N, K70R", "value": 66, "unit": "fold"},
      {"measurement": "Fold-Resistance", "setting": "[1]; passage 40, D67N, K70R, A371A/V, Q509Q/L", "value": 86, "unit": "fold"},
      {"measurement": "Fold-Resistance", "setting": "[1]; passage 55, D67N, K70R, T215T/I, A371A/V, Q509Q/L", "value": 255, "unit": "fold"},
      {"measurement": "Fold-Resistance", "setting": "[1]; passage 60, D67N, K70R, T215I, A371A/V, Q509L", "value": 489, "unit": "fold"},
      {"measurement": "greater AZT resistance conferred by T215F than T215I", "setting": "[2]; T215F versus T215I", "value": "~25", "unit": "fold"},
      {"measurement": "AZT resistance conferred by A371V and Q509L, alone or together", "setting": "[2]; in the absence of TAMs", "value": "did not confer AZT resistance"},
      {"measurement": "Fold-Resistance", "setting": "HIVLAI RT 67N/70R/371V; 67N/70R/371V compared to wild-type", "value": 6.4, "unit": "fold"},
      {"measurement": "IC50", "setting": "HIVLAI RT 67N/70R/371V; Human immunodeficiency virus 1, P4/R5, 67N/70R/371V, mean ± SD", "value": "1400 ± 500", "unit": "nM"},
      {"measurement": "IC50", "setting": "HIVLAI RT Q509L; Human immunodeficiency virus 1, P4/R5, Q509L, mean ± SD", "value": "300 ± 200", "unit": "nM"},
      {"measurement": "Fold-Resistance", "setting": "HIVLAI RT Q509L; Q509L compared to wild-type", "value": 1.3, "unit": "fold"},
      {"measurement": "Fold-Resistance", "setting": "HIVLAI RT D67N/K70R; 67N/70R compared to wild-type", "value": 4.6, "unit": "fold"},
      {"measurement": "IC50", "setting": "HIVLAI RT D67N/K70R; Human immunodeficiency virus 1, P4/R5, 67N/70R, mean ± SD", "value": "1100 ± 600", "unit": "nM"},
      {"measurement": "Fold-Resistance", "setting": "HIVLAI RT 67N/70R/509L; 67N/70R/509L compared to wild-type", "value": 14, "unit": "fold"},
      {"measurement": "IC50", "setting": "HIVLAI RT 67N/70R/509L; Human immunodeficiency virus 1, P4/R5, 67N/70R/509L, mean ± SD", "value": "3000 ± 1000", "unit": "nM"},
      {"measurement": "Fold-Resistance", "setting": "[3]; 67N/70R/215I/509L compared to wild-type", "value": 14, "unit": "fold"},
      {"measurement": "IC50", "setting": "[3]; Human immunodeficiency virus 1, P4/R5, 67N/70R/215I/509L, mean ± SD", "value": "3000 ± 2200", "unit": "nM"},
      {"measurement": "IC50", "setting": "Wild-type HIVLAI", "value": "200 ± 100", "unit": "nM"},
      {"measurement": "reduction of AZT susceptibility", "setting": "[4]", "value": 30, "unit": "fold"},
      {"measurement": "increase in resistance", "setting": "[5]", "value": "1,230 fold"}
    ]}
  ]
}
